Measured values reported in the supplement of paper PMC13386468.

How the values were obtained:
Assay in all cases: IC50 for competition of protein binding to Kinobeads
Conditions in all cases: assay detail: Kinobeads competition in P. falciparum blood-stage lysate
UniProt Q7K6B1 = biological target: UniProt Q7K6B1
UniProt Q8IJW3 = biological target: UniProt Q8IJW3
UniProt C6KSR5 = biological target: UniProt C6KSR5
UniProt Q8IE50 = biological target: UniProt Q8IE50
UniProt Q8IJQ1 = biological target: UniProt Q8IJQ1
UniProt C0H530 = biological target: UniProt C0H530
UniProt Q8ID72 = biological target: UniProt Q8ID72
UniProt Q8I5X8 = biological target: UniProt Q8I5X8
UniProt Q8I415 = biological target: UniProt Q8I415
UniProt Q8I266 = biological target: UniProt Q8I266
UniProt Q8I492 = biological target: UniProt Q8I492
UniProt Q8I0W9 = biological target: UniProt Q8I0W9
UniProt Q9TY99 = biological target: UniProt Q9TY99
UniProt Q8IM26 = biological target: UniProt Q8IM26
UniProt Q8IBM9 = biological target: UniProt Q8IBM9
UniProt Q8ILP3 = biological target: UniProt Q8ILP3
UniProt Q8ILP3, sequence (Q8ILP3 whole entry): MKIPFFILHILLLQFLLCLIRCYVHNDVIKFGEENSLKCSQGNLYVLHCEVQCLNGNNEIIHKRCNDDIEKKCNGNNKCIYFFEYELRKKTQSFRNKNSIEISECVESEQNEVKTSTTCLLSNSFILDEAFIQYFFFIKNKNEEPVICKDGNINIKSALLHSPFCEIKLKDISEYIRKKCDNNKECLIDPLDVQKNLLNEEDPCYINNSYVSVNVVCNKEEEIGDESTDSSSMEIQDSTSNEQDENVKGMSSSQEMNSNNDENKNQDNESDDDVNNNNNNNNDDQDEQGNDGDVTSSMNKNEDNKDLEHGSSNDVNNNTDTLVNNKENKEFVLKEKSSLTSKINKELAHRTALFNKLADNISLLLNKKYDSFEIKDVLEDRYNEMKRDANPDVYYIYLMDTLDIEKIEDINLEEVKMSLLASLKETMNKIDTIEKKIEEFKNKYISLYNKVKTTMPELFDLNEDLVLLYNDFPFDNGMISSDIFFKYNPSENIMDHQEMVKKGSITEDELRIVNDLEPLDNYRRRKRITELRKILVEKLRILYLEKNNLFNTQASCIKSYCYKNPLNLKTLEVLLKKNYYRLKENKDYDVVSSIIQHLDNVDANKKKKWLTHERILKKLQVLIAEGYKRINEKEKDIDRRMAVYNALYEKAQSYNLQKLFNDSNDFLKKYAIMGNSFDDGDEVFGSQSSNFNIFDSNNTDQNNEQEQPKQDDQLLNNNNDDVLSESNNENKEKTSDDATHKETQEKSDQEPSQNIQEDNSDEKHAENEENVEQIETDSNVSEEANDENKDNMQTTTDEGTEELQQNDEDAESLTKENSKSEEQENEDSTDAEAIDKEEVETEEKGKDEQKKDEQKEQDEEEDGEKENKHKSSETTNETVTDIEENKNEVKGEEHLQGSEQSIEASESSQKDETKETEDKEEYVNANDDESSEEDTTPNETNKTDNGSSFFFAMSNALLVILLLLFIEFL

UniProt C6KT76 = biological target: UniProt C6KT76
UniProt C6KSV4 = biological target: UniProt C6KSV4
UniProt Q8II53 = biological target: UniProt Q8II53
UniProt Q8I207 = biological target: UniProt Q8I207
UniProt Q8ILW8 = biological target: UniProt Q8ILW8
UniProt Q8IJV7 = biological target: UniProt Q8IJV7
UniProt C6KSZ6 = biological target: UniProt C6KSZ6
UniProt Q8IL80 = biological target: UniProt Q8IL80
UniProt Q8IIV2 = biological target: UniProt Q8IIV2
UniProt Q8I616 = biological target: UniProt Q8I616
UniProt Q8IEF0 = biological target: UniProt Q8IEF0
UniProt Q8III6 = biological target: UniProt Q8III6
UniProt Q8IFP2 = biological target: UniProt Q8IFP2
UniProt Q8IFM0 = biological target: UniProt Q8IFM0
UniProt O97284 = biological target: UniProt O97284
UniProt Q8IBZ9 = biological target: UniProt Q8IBZ9
UniProt Q8IBZ9, sequence (Q8IBZ9 whole entry): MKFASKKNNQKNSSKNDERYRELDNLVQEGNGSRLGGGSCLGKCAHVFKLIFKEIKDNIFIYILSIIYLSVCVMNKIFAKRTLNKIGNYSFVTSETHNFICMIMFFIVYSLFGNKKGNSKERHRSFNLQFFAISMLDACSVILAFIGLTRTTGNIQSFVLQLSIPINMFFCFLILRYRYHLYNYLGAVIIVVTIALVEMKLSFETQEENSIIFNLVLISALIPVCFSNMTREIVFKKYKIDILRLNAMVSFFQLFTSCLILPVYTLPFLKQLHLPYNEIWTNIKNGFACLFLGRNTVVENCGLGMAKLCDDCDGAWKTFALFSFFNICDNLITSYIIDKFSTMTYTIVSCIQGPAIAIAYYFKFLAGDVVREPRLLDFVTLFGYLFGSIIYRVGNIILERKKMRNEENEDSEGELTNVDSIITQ

UniProt Q8IL56 = biological target: UniProt Q8IL56
UniProt Q8I5D2 = biological target: UniProt Q8I5D2
UniProt Q8I5D2, sequence (Q8I5D2 whole entry): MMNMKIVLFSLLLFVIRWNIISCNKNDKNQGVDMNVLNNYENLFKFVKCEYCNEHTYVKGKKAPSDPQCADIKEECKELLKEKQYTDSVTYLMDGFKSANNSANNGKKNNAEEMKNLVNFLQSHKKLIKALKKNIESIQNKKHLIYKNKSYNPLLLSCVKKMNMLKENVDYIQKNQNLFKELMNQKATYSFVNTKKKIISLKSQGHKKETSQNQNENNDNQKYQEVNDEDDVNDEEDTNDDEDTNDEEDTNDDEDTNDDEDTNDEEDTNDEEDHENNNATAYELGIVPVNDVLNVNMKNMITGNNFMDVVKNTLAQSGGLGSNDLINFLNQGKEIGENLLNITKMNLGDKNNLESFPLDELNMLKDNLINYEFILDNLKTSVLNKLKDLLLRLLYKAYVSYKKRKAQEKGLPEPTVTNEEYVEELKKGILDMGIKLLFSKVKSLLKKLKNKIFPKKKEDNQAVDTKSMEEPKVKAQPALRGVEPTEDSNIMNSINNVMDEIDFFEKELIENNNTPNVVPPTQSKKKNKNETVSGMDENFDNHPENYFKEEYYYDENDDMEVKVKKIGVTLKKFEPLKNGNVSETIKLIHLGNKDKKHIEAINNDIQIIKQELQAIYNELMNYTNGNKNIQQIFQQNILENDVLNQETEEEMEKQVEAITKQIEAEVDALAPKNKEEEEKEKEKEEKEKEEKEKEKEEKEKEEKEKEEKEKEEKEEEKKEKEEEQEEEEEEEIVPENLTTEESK

UniProt Q8IJP8 = biological target: UniProt Q8IJP8
UniProt P61074 = biological target: UniProt P61074
UniProt P61074, sequence (P61074 whole entry): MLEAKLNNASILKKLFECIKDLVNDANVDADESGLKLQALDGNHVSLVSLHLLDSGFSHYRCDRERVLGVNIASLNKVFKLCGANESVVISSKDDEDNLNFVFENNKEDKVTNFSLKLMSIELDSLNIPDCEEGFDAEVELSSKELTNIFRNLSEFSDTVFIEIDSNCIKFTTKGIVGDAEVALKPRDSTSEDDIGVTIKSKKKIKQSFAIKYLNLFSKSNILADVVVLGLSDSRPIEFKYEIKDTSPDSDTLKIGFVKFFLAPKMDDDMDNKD

A0A143ZZT8 = biological target: A0A143ZZT8
UniProt Q8IM10 = biological target: UniProt Q8IM10
UniProt Q8ILN8 = biological target: UniProt Q8ILN8
UniProt Q8IBS3 = biological target: UniProt Q8IBS3
UniProt C0H571 = biological target: UniProt C0H571
UniProt C0H571, sequence (C0H571 whole entry): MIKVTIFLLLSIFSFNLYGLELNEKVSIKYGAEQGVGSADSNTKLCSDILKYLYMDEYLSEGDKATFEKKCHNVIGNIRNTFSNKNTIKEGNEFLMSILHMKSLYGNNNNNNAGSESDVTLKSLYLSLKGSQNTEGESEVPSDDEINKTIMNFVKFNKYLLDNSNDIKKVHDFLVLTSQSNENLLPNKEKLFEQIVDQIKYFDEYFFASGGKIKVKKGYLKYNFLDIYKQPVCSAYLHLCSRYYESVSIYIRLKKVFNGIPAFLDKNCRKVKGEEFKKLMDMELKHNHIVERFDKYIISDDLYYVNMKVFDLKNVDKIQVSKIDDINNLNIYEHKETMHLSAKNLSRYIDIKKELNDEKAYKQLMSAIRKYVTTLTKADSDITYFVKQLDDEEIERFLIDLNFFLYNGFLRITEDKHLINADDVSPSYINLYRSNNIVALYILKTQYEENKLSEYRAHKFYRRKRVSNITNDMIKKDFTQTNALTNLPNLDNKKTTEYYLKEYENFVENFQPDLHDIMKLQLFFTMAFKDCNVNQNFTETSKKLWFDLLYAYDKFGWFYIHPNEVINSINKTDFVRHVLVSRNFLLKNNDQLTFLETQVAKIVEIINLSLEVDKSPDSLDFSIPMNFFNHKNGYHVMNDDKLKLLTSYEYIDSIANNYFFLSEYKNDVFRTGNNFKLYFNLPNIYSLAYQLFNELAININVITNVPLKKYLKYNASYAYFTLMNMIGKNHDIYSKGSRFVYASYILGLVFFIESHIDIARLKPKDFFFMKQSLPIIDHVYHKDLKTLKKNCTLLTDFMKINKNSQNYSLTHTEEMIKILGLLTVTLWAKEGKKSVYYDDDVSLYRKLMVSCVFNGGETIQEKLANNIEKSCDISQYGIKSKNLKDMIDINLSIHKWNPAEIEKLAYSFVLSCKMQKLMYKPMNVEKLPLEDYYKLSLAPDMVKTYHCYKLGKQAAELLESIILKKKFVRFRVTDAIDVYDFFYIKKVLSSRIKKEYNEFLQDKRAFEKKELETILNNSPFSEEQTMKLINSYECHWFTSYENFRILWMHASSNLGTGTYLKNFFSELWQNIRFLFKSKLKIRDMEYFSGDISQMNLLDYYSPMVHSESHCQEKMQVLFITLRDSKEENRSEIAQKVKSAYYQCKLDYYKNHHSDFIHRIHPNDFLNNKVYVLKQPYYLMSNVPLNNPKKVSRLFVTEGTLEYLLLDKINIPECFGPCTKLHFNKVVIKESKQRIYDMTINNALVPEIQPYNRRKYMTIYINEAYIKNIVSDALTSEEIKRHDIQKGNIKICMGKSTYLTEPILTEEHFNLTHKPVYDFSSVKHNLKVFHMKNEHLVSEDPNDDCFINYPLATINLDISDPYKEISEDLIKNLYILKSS

UniProt Q8I274 = biological target: UniProt Q8I274
UniProt C0H5J2 = biological target: UniProt C0H5J2
UniProt Q8IIW6 = biological target: UniProt Q8IIW6
UniProt C6KTA4 = biological target: UniProt C6KTA4
UniProt Q8I574 = biological target: UniProt Q8I574
UniProt Q8I5B2 = biological target: UniProt Q8I5B2
UniProt Q8IDJ8 = biological target: UniProt Q8IDJ8
UniProt O96153 = biological target: UniProt O96153
UniProt Q8IE99 = biological target: UniProt Q8IE99
UniProt Q8ILQ8 = biological target: UniProt Q8ILQ8

Measured: IC50
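Further: native unpurified kinases from lysate captured on beads bearing immobilized kinase inhibitors, with bead-bound kinases quantified by mass spectrometry across compound doses.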

O=c1[nH]c2ccc(Cl)cc2c(NC2CN3CCC2CC3)c1-c1nc2ccccc2[nH]1 (stereo unspecified) [CHIR-124]
2.22 µM: UniProt C6KSZ6
0.25 µM: UniProt Q8IIW6
> 20 µM: all other assays above
